{
  "source": "patent US20130251697A1",
  "about": "“NOVEL NASAL SPRAY” (priority 2009, published 2013)",
  "origin": "cited, not measured here",
  "test_system": "SIRT1",
  "conditions": "life extending genes",
  "data": [
    {"compound": "Oc1ccc(C=Cc2cc(O)cc(O)c2)cc1", "note": "[Resveratrol]", "values": [
      {"measurement": "increases genes SIRT1 expression", "value": "up to 13 fold"}
    ]}
  ]
}
